Read-outs that look alike come from different tables or passages of the source.
Columns and labels:
cells [1] = experiment: Amount of AP1903 needed in vitro for effective signaling of cells; assay type: cell-based; conditions: calculated with 1600 Da MW
Procedure: The fixed dose of AP1903 for injection used, for example, may be 0.4 mg/kg intravenously infused over 2 hours. The amount of AP1903 needed in vitro for effective signaling of cells is 10-100 nM (1600 Da MW). This equates to 16-160 μg/L or 0.016-1.6 μg/kg (1.6-160 μg/kg). Doses up to 1 mg/kg were well-tolerated in the Phase I study of AP1903 described above. Therefore, 0.4 mg/kg may be a safe and effective dose of AP1903 for this Phase I study in combination with the therapeutic cells.

[2] = system: human pan T-cells containing the iC9 construct; experiment: iC9 safety switch test: viability by flow cytometry using 7-AAD; assay type: cell-based; conditions: 24 hours incubation, 0-1000 nM tested, cells with iC9 safety switch
Excerpt: Human pan T-cells were nucleofected using an Amaxa 4D nucleofector with one of four piggyBac transposons. Modified T cells receiving the “mock” condition were nucleofected with an empty piggyBac transposon. Modified T cells received either a piggyBac transposon containing a therapeutic agent alone (a sequence encoding a CARTyrin) or a piggyBac transposon containing an integrated iC9 sequence and a therapeutic agent (a sequence encoding a CARTyrin).
To test the iC9 safety switch, each of the four modified T cells were incubated for 24 hours with 0, 0.1 nM, 1 nM, 10 nM, 100 nM or 1000 nM AP1903 (an induction agent for […]). Viability was assessed by flow cytometry using 7-aminoactinomycin D (7-AAD), a fluorescent intercalator, as a marker for cells undergoing apoptosis.

cells [3] = conditions: cited from earlier work
[4] = cited from earlier work
human primary T cells = experiment: In vitro CARTyrin surface expression in T cells; assay type: cell-based; conditions: following lentiviral transduction of human primary T cells
Excerpt: Characterization further assays correlations with functionality.

tumor = experiment: In vivo tumor challenge study in mice
Excerpt: FIG. 6 is a schematic diagram depicting an in vivo tumor challenge study timeline using the A08 CARTyrin in mice.
FIG. 6 depicts the treatment schedule for an in vivo study in mice using the A08 CARTyrin. […] FIG. 8 provides a series of photographs further illustrating tumor burden in control animal as well as those treated with P-BCMA-101.

Procedure for BCMA+ tumor cells: Functionality of CARTyrin-expressing T cells was measured by degranulation against tumor lines.

| Compound | amount needed for effective signaling, equated to dose (cells [1]) | amount needed for effective signaling, equated to mass concentration (cells [1]) | concentration at which apoptosis is induced [2] | amount needed in vitro for effective signaling of cells (cells [3]) | plasma level as % of maximal concentration ([4]; 0.5 hours post-dose) | plasma level as % of maximal concentration ([4]; 2 hours post-dose) | plasma level as % of maximal concentration ([4]; 10 hours post-dose) | well-tolerated doses ([4]; Phase I study, IV) | mean Cmax ([4]; single doses infused IV over 2 hours, 0.01-1.0 mg/kg dose range, plasma) | surface expression (human primary T cells) | tumor burden assessed by M-protein abundance (tumor; day 21) | tumor burden assessed by M-protein abundance (tumor; day 21, listed as P-BCMA-101) | tumor burden compared to controls (tumor; photographs) | survival (tumor; to day 21) | cytotoxic function (e.g. proliferation) (BCMA+ tumor cells) |
| --- | --- | --- | --- | --- | --- | --- | --- | --- | --- | --- | --- | --- | --- | --- | --- |
| CC[C@H](C(=O)N1CCCC[C@H]1C(=O)O[C@H](CCc1ccc(OC)c(OC)c1)c1cccc(OCC(=O)NCCNC(=O)COc2cccc([C@@H](CCc3ccc(OC)c(OC)c3)OC(=O)[C@@H]3CCCCN3C(=O)[C@@H](CC)c3cc(OC)c(OC)c(OC)c3)c2)c1)c1cc(OC)c(OC)c(OC)c1 (relative stereo) [AP1903, 2-Piperidinecarboxylic acid, 1-[(2S)-1-oxo-2-(3,4,5-trimethoxyphenyl)butyl]-, 1,2-ethanediylbis[imino(2-oxo-2,1-ethanediyl)oxy-3,1-phenylene[(1R)-3-(3,4-dimethoxyphenyl)propylidene]]ester, [2S-[1(R*),2R*[S*[S*[1(R*),2R*]]]]]-(9Cl)] | 0.016 to 1.6 µg/kg | 16 to 160 µg/L | ≤ 0.1 nM | 10 to 100 nM | approximately 18% | ~7% | ~1% | up to 1 mg/kg | 10 to 1275 ng/mL | – | – | – | – | – | – |
| A08 CARTyrin: anti-BCMA CARTyrin (CAR comprising a Centyrin), SEQ ID NO: 21; P-BCMA-101 encodes the A08 anti-BCMA CARTyrin | – | – | – | – | – | – | – | – | – | high levels of surface expression | no detectable M-protein | not detectable | reduce tumor burden | 100% | strong cytotoxic function |
